Measured values published in US9181218B2, “Compounds for improved stem cell differentiation into hepatocytes” (Hoffmann-La Roche Inc., priority 2013, dated 2015).

Legend:
[1] = Microarray analysis of iCell Hepatocytes treated with the compound of example 1; type: cell-based, Human; conditions: 2 HOUR
Text: iCell Hepatocytes treated with the compound of example 1 results in the up and down-regulation of a host of genes; including a kinetic effect on interferon-stimulated gene (ISGs) expression. See FIGS. 15-I and 15-II, 16-I and 16-II and 18 and Table 1.

[2] = tested on: HBV; assay: Infection of iCell Hepatocytes with HBV; type: cell-based, hepatitis B virus (HBV)
Procedure: Two hundred microliters of HBV-containing serum was applied onto a 10-50% Optiprep gradient in SW41 tubes. Samples were centrifuged at 100,000×g for 2 hr at 4 C. Five hundred microliters fractions were collected from the top; each fraction was analyzed for HBsAg (ELISA) and HBV DNA (TaqMan PCR). Fractions containing virus were stored at −80 C.
Fresh iCell® Hepatocytes (day 20-23) were plated and cultured according to iCell Hepatocytes Dissociation and Plating User's Guide at 60 k cells per well in 96 well BIO Collagen IV coated plates (BD Cat#354429) 4 Hours post plating Medium C was removed and replaced with a 1:50 Matrigel (Cat#354227) overlay in Medium D. Twenty four hours post plating, cells were treated with 1 uM of the compound of example 1 in Medium D containing 1% DMSO. Media containing fresh compound was replenished 2 days later. At day 4 post plating, cells were infected with HBV at MOI (multiplicity of infection) of 10. Briefly, purified virus was diluted in medium D containing the compound of example 1 and incubated with cells for 4-6 hr or overnight. After removal of virus inoculum, fresh media containing 1 uM of the compound of example 1 was added and cells were incubated for 14 days with a medium change every 2 days. Culture media were analyzed for secreted viral antigens (HBsAg, HBeAg) and HBV DNA.

O=C(NCc1cccc(F)c1)c1cccc2nc(-c3c(NC[C@@H](O)c4ccccc4)cc[nH]c3=O)[nH]c12 [Example 1, 2-[4-((S)-2-hydroxy-2-phenyl-ethylamino)-2-oxo-1,2-dihydro-pyridin-3-yl]-3H-benzoimidazole-4-carboxylic acid 3-fluoro-benzylamide]
ABCA9 Raw Est Fold Change [1]: −4.37
PCP4 Raw Est Fold Change [1]: −2.44
infection of the four major HBV genotypes ([2]; iCell hepatocytes treated with compound): support robust infection of all four major HBV genotypes
infection with patient-derived vs cell culture-derived (HepG2.2.15) HBV ([2]; iCell hepatocytes treated with compound, FIG. 8): support infection of patient-derived, but not cell culture-derived, HBV
cell susceptibility to HBV infection ([2]; iCell hepatocytes, FIG. 3): cell susceptibility to HBV infection that occurred in a dose-dependent manner
need for compound presence to maintain robust viral infection ([2]; pre-treated 6 d vs pre-treated and during infection (throughout)): Continuous presence of the compound of example 1 is required
